Experimental data reported in paper PMC7287031 (Pharmacology Research & Perspectives, 2020).
Like-named read-outs stand apart in the source and are kept apart here.

How the values were obtained:
[1] = Dog pharmacokinetic studies: plasma PK of ribociclib after single i.v. or oral dose; type: in vivo; settings: male; for half-life: read-out: t½ (converted)
Method: ADME studies (including QWBA in pigmented and non‐pigmented rats) using radiolabeled ribociclib were conducted in rat and dog. Relevant institutional and national guides for the care and use of laboratory animals were followed. […]

[2] = In vitro plasma protein binding (ultrafiltration), rat; type: in vitro ADME; settings: 100 and 1000 ng/mL
Method: Stock solutions were spiked into plasma to achieve the intended concentrations. After incubation for 1 hour at 37°C under constant gentle agitation, the spiked plasma samples (n = 3) were centrifuged (2000 g, 10 min, 37°C) in pre‐warmed Centrifree devices. Total radioactivity was determined in the ultrafiltrate (Cu, concentration of unbound compound) and in the sample introduced into the reservoir before ultrafiltration (Cp). The unbound (fu) and the bound (fb) fraction in plasma were calculated as follows: fu (%) = Cu/Cp × 100; fb (%) = 100‐Fu (%).

[3] = Tissue distribution by quantitative whole-body autoradiography (QWBA); type: in vivo; settings: rat QWBA
Method: ADME studies (including QWBA in pigmented and non‐pigmented rats) using radiolabeled ribociclib were conducted in rat and dog. Relevant institutional and national guides for the care and use of laboratory animals were followed.
QWBA studies were conducted with the tritium label in Hanover Wistar and partially pigmented Long‐Evans rats. A further QWBA study was conducted with the carbon‐14 label in male Long Evans rats in order to support the dosimetry calculation for the human ADME study. Briefly, 40‐µm thick lengthwise dehydrated whole body sections were exposed for 1 day to Fuji BAS III imaging plates (Fuji Photo Film Co., Ltd., J‐Tokyo) in a lead‐shielded box and room temperature, and scanned in a Fuji BAS 5000 phosphor imager at a 50‐µm scanning step. Concentrations of total radiolabeled components in the tissues were determined by comparative densitometry and digital analysis of the autoradiogram; blood samples of known radioactivity concentrations processed under the same conditions as the samples to analyze were used as calibrators.

[4] = tested on: hepatic P450 isoenzymes (total); assay: Biotransformation by a panel of 17 recombinant human CYPs and three FMOs; type: in vitro ADME; settings: human, recombinant human CYPs, scaled to human liver microsomes, pH 7.4; sum over CYPs, based on recombinant enzyme data; read-out: Rel.Clint,u in HLM, total of hepatic P450 isoenzymes
Method: (§1) In vitro incubations were carried out in 100‐mM potassium phosphate buffer (pH 7.4) and 5‐mM MgCl2 with a total volume of 200 µL. Substrate and either human liver microsomes (HLM, BD Biosciences, mixed gender pool of n = 50) or recombinant human enzymes (BD Biosciences) were added and pre‐incubated for 3 minutes at 37°C. The reaction was started by addition of a fresh solution of NADPH (1 mmol/L final concentration). The samples were incubated at 37°C with agitation of 500 rpm. For incubations with CYP2A6, CYP2C9, CYP2C18, and CYP4A11, the phosphate buffer was replaced by TRIS buffer (100 mmol/L, pH 7.4) and for flavin‐containing monooxygenases (FMOs), a glycine buffer (50 mM, pH 9.5) was used.
(§2) The enzymatic reaction was stopped and the protein was precipitated by addition of an equal volume of methanol. After 30 min at −80°C, the samples were centrifuged at 30'000 x g for 15 min. The supernatant was withdrawn. Aliquots were analyzed by LSC and the supernatant was diluted with water to obtain a final solution containing less than 20% of the organic solvent. For samples of low substrate concentration, supernatants were evaporated to dryness under nitrogen, then re‐suspended in water containing less than 20% of methanol. Samples were analyzed by HPLC combined with radiodetection.
(§3) The relative contribution of CYP enzymes to oxidative hepatic metabolism was determined using their Clint values multiplied by the unbound fraction in microsomes and their abundances in human liver microsomes. ^15 Among the hepatic P450 enzymes, CYP3A4 contributed predominantly (97%) to metabolism in human liver microsomes (Table 1) with negligible fraction metabolized by CYP1A2 (1.1%), CYP2J2 (0.8%), and CYP3A5 (1.2%).

[5] = tested on: recombinant human CYPs and FMOs; assay: as above; type: in vitro ADME
Method: as §1, §2, §3

[6] = Human ADME study: PK of ribociclib and LEQ803 in plasma and urine (validated bioanalytical assay); type: in vivo; settings: for AUC(0-inf) / AUC(0-t) / Cmax / half-life: plasma, po, 600 mg
Method: Subjects continued to fast for 4 hours after drug administration.
Plasma aliquots at each time point were subjected to protein precipitation with three volumes of acetonitrile containing 0.1% (v:v) formic acid, followed by dilution and analysis by liquid chromatography‐tandem mass spectrometry in selected reaction monitor‐positive ion mode using heated electrospray ionization as the ionization technique. For urine aliquots, six volumes of acetonitrile containing 0.1% (v:v) formic acid were added, followed by dilution and analysis in the same way as for plasma. Components were separated using a YMC‐Triart C18 (2.0 x 30 mm, 1.9 µm) column (YMC Co. Ltd.). […] Mobile phase A was 0.1% formic acid in H2O while mobile phase B was 0.1% formic acid in ACN:Isopropanol 8:2 v:v.

[7] = design: method as in earlier work; settings: humans, total of central and peripheral volume; ref 22 (Lu et al, manuscript submitted); cited from earlier work
[8] = Beagle, 0.5 mg/kg, dog m (3), po, 0.5 mg base/kg
[9] = Beagle, 5 mg/kg, dog m (3), po, 5.0 mg base/kg
[10] = Beagle, dog m (4), po, 18.9 mg base/kg

SMILES: CN(C)C(=O)c1cc2cnc(Nc3ccc(N4CCNCC4)cn3)nc2n1C1CCCC1 [ribociclib, Ribociclib]
- Cmax [1, 8]: 10.4 ng/mL
- bioavailability [1, 8]: 64%
- AUC(0-t) ([1]; Beagle, 0.5 mg/kg, dog m (3), po, 0.5 mg base/kg, AUC interval 24 h): 155 ng·h/mL
- Cmax [1, 9]: 206 ng/mL
- Tmax [1, 9]: 1 h
- AUC(0-t) ([1]; Beagle, 5 mg/kg, dog m (3), po, 5.0 mg base/kg, AUC interval 168 h): 4520 ng·h/mL
- half-life [1, 9]: 38.8 h
- Cmax [1, 10]: 1220 ng/mL
- Tmax [1, 10]: 1 h
- bioavailability [1, 10]: 87%
- AUC(0-t) ([1]; Beagle, dog m (4), po, 18.9 mg base/kg, AUC interval 48 h): 21100 ng·h/mL
- half-life [1, 10]: 12.6 h
- AUC(0-t) ([1]; Beagle, iv, 0.2 mg/kg, dog m (3), 0.2 mg base/kg, AUC interval 24 h): 105 ng·h/mL
- clearance ([1]; iv, dog m (3), 0.2 mg base/kg): 31.7 mL/min/kg
- Vd ([1]; iv, dog m (3), i.v., 0.2 mg base/kg, read-out: Vss): 27.9 L/kg
- half-life ([1]; iv, dog m (3), i.v., 0.2 mg base/kg): 18.1 h
- fraction unbound at 1 h [2]: 0.2 ± 0.01
- time of last measurable concentration (total radioactivity) ([3]; 52 of 58 tissues investigated): ≤ 48 h
- time of last measurable concentration (total radioactivity) ([3]; eyes and meninges, last observation time point): 840 h
- tissue distribution of total radioactivity ([3]; intravenous or oral dose): marked distribution into the extravascular compartment, except for brain
- time of last measurable concentration (total radioactivity) ([3]; lymph nodes, preputial gland, testis): 168 h
- microsomal CLint [4]: 49.2 µL/min/mg
- turnover by recombinant enzymes ([5]; CYP1A2, CYP3A5, FMO3, and FMO5, 0.75 and 20 µmol/L, 15 min): Low metabolic activities
- turnover by recombinant enzymes ([5]; CYP1B1, CYP2A6, CYP2B6, CYP2C8, CYP2C9, CYP2C18, CYP2C19, CYP2D6, CYP2E1, CYP4A11, and CYP4F2): No metabolic activities were detected
- turnover by recombinant enzymes ([5]; CYP3A4, CYP2J2, CYP1A1, FMO1, and FM03, 0.75 and 20 µmol/L, 15 min): high turnover
- Ribociclib in urine by validated bioanalytical assay ([6]; human): 6.75 % of the dose
- renal clearance lower than non-renal clearance ([6]; human): more than 10 fold
- Tmax ([6]; human plasma, bioanalytical assay, single oral 600 mg, N=6, read-out: tmax, median (range)): 1.75 h
- AUC(0-inf) ([6]; human, human plasma, bioanalytical assay, single oral 600 mg, N=6, read-out: AUCinf, arithmetic mean (CV %)): 8700 ng·h/mL
- AUC(0-inf) ([6]; human, human plasma, bioanalytical assay, single oral 600 mg, N=6, read-out: AUCinf, median): 8880 ng·h/mL
- AUC(0-t) ([6]; human, human plasma, bioanalytical assay, single oral 600 mg, N=6, read-out: AUClast, arithmetic mean (CV %)): 8600 ng·h/mL
- AUC(0-t) ([6]; human, human plasma, bioanalytical assay, single oral 600 mg, N=6, read-out: AUClast, median): 8780 ng·h/mL
- Cmax ([6]; human, human plasma, bioanalytical assay, single oral 600 mg, N=6, read-out: Cmax, arithmetic mean (CV %)): 507 ng/mL
- Cmax ([6]; human, human plasma, bioanalytical assay, single oral 600 mg, N=6, read-out: Cmax, median): 518 ng/mL
- half-life ([6]; human, human plasma, bioanalytical assay, single oral 600 mg, N=6, read-out: t½, arithmetic mean (CV %) (converted)): 54.7 h
- half-life ([6]; human, human plasma, bioanalytical assay, single oral 600 mg, N=6, read-out: t½, median (converted)): 49.4 h
- CL/F, median ([6]; human, single oral 600 mg): 70.2 L/h
- CL renal ([6]; male, plasma and urine, human, single oral 600 mg, read-out: renal clearance, median (converted)): 92.5 mL/min
- apparent volume of distribution at steady state [7]: 1090 L
